Laboratory results reported in US20240285545A1, “NANOSUSPENSION FORMULATION FOR TREATMENT OF PULMONARY FIBROSIS” (The Johns Hopkins University, priority 2023, published 2024).

Assays:
[1] = tested on: silica-induced pulmonary fibrosis model; test: Therapeutic efficacy in silica-induced pulmonary fibrosis model (histology, lung mechanics); assay type: in vivo, C57BL/6 mice; conditions: oral 100 mg/kg daily
Description: The Study design for assessing the therapeutic efficacy of NTB-NS in a preclinical silica-induced pulmonary fibrosis model is shown in FIG. 7. The silicosis model was established by a single intratracheal instillation of silica microparticles (800 mg/kg) into the lungs of C57BL/6 mice (Silicosis); in parallel, healthy control animals received saline in an identical manner (Control). Fifteen days after the silica instillation, animals were randomly assigned to different groups to receive oral daily doses of NTB-Esy at 100 mg/kg or intratracheal NTB-NS at a NTB dose of 0.1 or 1 mg/kg every 72 hours. Lungs were harvested for analysis at Day 34. IT: intratracheal; OR: oral. […]
For lung mechanics analysis at the end of treatments, mice were sedated with diazepam (1 mg/kg, intraperitoneal), anesthetized with thiopenthal sodium (20 mg/kg, intraperitoneal), tracheotomized, paralyzed with vecuronium bromide (0.005 mg/kg, intravenous), and ventilated with a constant flow ventilator (Samay VR 15, Montevideo, Uruguay) using the following parameters: frequency 100 breaths/min; tidal volume 0.2 mL; fraction of inspired oxygen 0.21. […] Data were analyzed using ANADAT data analysis software (RHT-InfoData Inc., Montreal Canada).
For histological analysis, left lung tissues were fixed with 4% paraformaldehyde and embedded in paraffin blocks. […] The granuloma fraction was calculated as follows: […]

[2] = oral administration of 100 mg/kg NTB, prior studies; cited from earlier work
silicotic animals = conditions: daily oral 100 mg/kg; model with lower silica dose (2.5 mg/mouse); cited from earlier work
[3] = free-base form; cited from earlier work

Structure (SMILES): CCS(=O)(=O)O.COC(=O)c1ccc2c(c1)NC(=O)/C2=C(\Nc1ccc(N(C)C(=O)CN2CCN(C)CC2)cc1)c1ccccc1 [NTB-Esy, NTB Esylate]
- Area of collagen deposition in alveolar septa versus untreated silicotic animals [1]: unlike 100 mg/kg oral NTB-Esy, significantly reduced
- Static lung elastance (Est,L) [1]: unlike oral NTB-Esy (100 mg/kg, daily), significantly decreased

Structure (SMILES): COC(=O)c1ccc2c(c1)NC(=O)/C2=C(\Nc1ccc(N(C)C(=O)CN2CCN(C)CC2)cc1)c1ccccc1 [NTB, Nintedanib]
- Amount of drug available in mouse lungs [2]: approximately 2.5 μg
- Fibrotic score in the lungs of silicotic animals (silicotic animals): significantly reduces
- Aqueous solubility [3]: low aqueous solubility
